Assay results: patent US10238665B2, “Methods for treating fungal infections” (BRIGHAM YOUNG UNIVERSITY, priority 2014, dated 2019)
≈ marks a conversion by molar mass, not a printed value. Where two headings read alike, the source gives them in different places.

Columns and labels:
[1] = test system: Candida albicans; test: MIC determination, broth microdilution (CLSI M27-A2); format: cell-based; conditions: 35° C., 24 hrs, 50% growth inhibition
Procedure: (§1) CSA 8 and CSA 13 were dissolved in dimethyl sulfoxide (DMSO) to create stock solutions. These solutions were applied to fungal isolates to determine the minimum inhibitory concentration (MIC) for each CSA.
(§2) An antifungal agent is serially diluted two-fold in a desired medium to produce ten concentrations of the antifungal under investigation. The range used is chosen to include achievable serum levels of the drug. A standardized inoculum of either yeast cells or conidia is diluted in an equal volume of the desired medium. The yeast or conidia inoculum is incubated in the serially diluted drug wells at 35° C. Two wells are used as controls. The negative control well has only media and serves as a sterility control. The positive control well has the standardized inoculum with no drug, and is used to compare with the amount of growth in the drug wells.
(§3) Testing is reported as an MIC, or minimum inhibitory concentration in μg/ml. This number represents the concentration at which the organism's growth in inhibited 50% from the control well for yeasts, and 80% for dermatophytes and certain filamentous fungi/antifungal combinations. Amphotericin B readings are taken at 100% inhibition.
(§4) Fungal cultures were prepared as follows: • 1. Grow Candida sp. on a potato dextrose agar plate for 24 hrs. at 35° C. Grow Cryptococcus sp. for 48 hrs. • 2. […]

[2] = test system: Penicillium sp.; test: MIC determination, broth microdilution (CLSI M38-A); format: cell-based; conditions: 35° C.
Procedure: as §1, §2, §3
(§5) Fungal cultures were prepared as follows: • 1. Grow Candida sp. on a potato dextrose agar plate for 24 hrs. at 35° C. Grow Cryptococcus sp. for 48 hrs. • 2. Pick 5 colonies >1 mm in diameter to 5 ml of 0.85% sterile saline in a sterile 15 ml conical tube and vortex. • 3. Count the cells using a hemacytometer • 4. Prepare a working suspension of yeast cells in RPMI-1640 to a final concentration of 2-5×10^3 CFU/ml (CFU=colony forming units or yeast cells) • 5. Prepare at least 2.5 ml of the working yeast suspension per drug per plate.
(§6) Plates were prepared as follows: • 1. Aseptically dispense RPMI-1640 into a 25 ml reservoir. • 2. Using a multichannel pipette with 8 tips, dispense 100 μl of RPMI-1640 into the wells of a 96 well round bottom plate in columns 11 and 12. These will serve as growth controls and sterility controls, respectively. • 3. Remove excess liquid from the reservoir. • 4. Add the lowest concentration of antifungal from the set of final concentrations to the reservoir, and using the same set of tips, dispense 100 μl into the wells of column 10. • 5. Repeat steps 4-5 for each final concentration, working from lowest to highest concentration into columns 9 through 1, until all columns are filled. • 6. Using a new set of pipette tips and a new reservoir, add 100 μl of inoculum to each well except […]. • 7. Run each organism in duplicate (i.e. add isolate one to rows 1 and 2, isolate two to rows 3 and four, etc.) • 8. Incubate the plates at 35° C. for 24 hrs. for Candida sp. and 72 hrs. for Cryptococcus sp. • Similar procedures are followed for Aspergillus sp., Trichophyton sp., and Microsporum sp.
(§7) Stock solutions of water-soluble and water insoluble antifungal agents were prepared according to standard laboratory procedures.
(§8) Antifungal susceptibility testing gives a numerical result expressed in μg/ml indicating an in vitro MIC, or minimum inhibitory concentration, of the drug being investigated. The Clinical and Laboratory Standards Institute (CLSI) has provided guidelines for standardized microdilution broth testing (CLSI M27-A2 for yeasts and CLSI M38-A for filamentous molds), which is followed in the above procedure. The CLSI has also published guidelines for interpretation of MIC results based on clinical correlation studies for yeasts.

[3] = test system: Cladosporium sp.; test: as above; format: cell-based; conditions: 35° C.
Procedure: as §1, §2, §3, §5, §6, §7, §8

[4] = test system: Microsporum canis; test: as above; format: cell-based; conditions: 35° C., 80% growth inhibition for dermatophytes
Procedure: as §1, §2, §3, §5, §6, §7, §8

[5] = test system: Aspergillus niger; test: as above; format: cell-based; conditions: 35° C.
Procedure: as §1, §2, §3, §5, §6, §7, §8

[6] = test system: Trichophyton rubrum; test: as above; format: cell-based; conditions: 35° C., 80% growth inhibition for dermatophytes
Procedure: as §1, §2, §3, §5, §6, §7, §8

[7] = test system: Aspergillus fumigatus; test: as above; format: cell-based; conditions: 35° C.
Procedure: as §1, §2, §3, §5, §6, §7, §8

[8] = test system: C. galabrata (fluconazole resistant); test: MIC determination, broth microdilution (CLSI M27-A2); format: cell-based, Candida glabrata; conditions: 35° C., 24 hrs, 50% growth inhibition
Procedure: as §1, §2, §3, §4

[9] = test system: C. lusitaniae; test: Additional MIC experiments (CSA-13 and squalamine); format: cell-based, Candida lusitaniae
Procedure: as §2, §3
(§9) Fungal cultures were prepared as follows: • 1. Grow Candida sp. on a potato dextrose agar plate for 24 hrs. at 35° C. Grow Cryptococcus sp. for 48 hrs. • 2. Pick 5 colonies >1 mm in diameter to 5 ml of 0.85% sterile saline in a sterile 15 ml conical tube and vortex. • 3. Count the cells using a hemacytometer • 4. […]

[10] = test system: T. tonsurans; test: MIC determination, broth microdilution (CLSI M38-A); format: cell-based, Trichophyton tonsurans; conditions: 35° C., 80% growth inhibition for dermatophytes
Procedure: as §1, §2, §3, §4

[11] = test system: C. albicans (fluconazole resistant); test: MIC determination, broth microdilution (CLSI M27-A2); format: cell-based, Candida albicans; conditions: 35° C., 24 hrs, 50% growth inhibition
Procedure: as §1, §2, §3, §4

[12] = test system: T. rubrum (terbinafine resistant); test: MIC determination, broth microdilution (CLSI M38-A); format: cell-based, Trichophyton rubrum; conditions: 35° C., 80% growth inhibition for dermatophytes
Procedure: as §1, §2, §3, §4

[13] = test system: C. krusei; test: MIC determination, broth microdilution (CLSI M27-A2); format: cell-based, Candida krusei; conditions: 35° C., 24 hrs, 50% growth inhibition
Procedure: as §1, §2, §3, §4

[14] = test system: C. krusei (fluconazole resistant); test: as above; format: cell-based, Candida krusei; conditions: 35° C., 24 hrs, 50% growth inhibition
Procedure: as §1, §2, §3, §4

[15] = test system: C. guilliermondii; test: Additional MIC experiments (CSA-13 and squalamine); format: cell-based, Candida guilliermondii
Procedure: as §2, §3, §9

[16] = test system: C. glabrata; test: Additional MIC experiments (CSA-13 and squalamine); format: cell-based, Candida glabrata
Procedure: as §2, §3, §9

[17] = test system: C. tropicalis; test: Additional MIC experiments (CSA-13 and squalamine); format: cell-based, Candida tropicalis
Procedure: as §2, §3, §9

[18] = test system: T. mentagrophytes; test: MIC determination, broth microdilution (CLSI M38-A); format: cell-based, Trichophyton mentagrophytes; conditions: 35° C., 80% growth inhibition for dermatophytes
Procedure: as §1, §2, §3, §4

[19] = test system: Cryptococcus neofermans; test: Additional MIC experiments (CSA-13 and squalamine); format: cell-based, Cryptococcus neoformans
Procedure: as §2, §3, §9

[20] = test system: C. parapsilosis; test: MIC determination, broth microdilution (CLSI M27-A2); format: cell-based, Candida parapsilosis; conditions: 35° C., 24 hrs, 50% growth inhibition
Procedure: as §1, §2, §3, §4

[21] = test system: 100 Candida auris isolates; test: Antifungal effectiveness against Candida auris, MIC by CLSI M27-A3; format: cell-based
Procedure: The antifungal effectiveness of CSA-131 was tested against 100 Candida auris isolates. The C. auris isolates were form all over the world and covered know C. auris clades. The selection included isolated known to have elevated MIC values against fluconazole, the echinocandins, and/or amphotericin B.
Testing was performed according to the standards of the Clinical and Laboratory Standards Institute reference methodology M27-A3 (as of 2017). CSA-131 was dissolved in DMSO and diluted as described in M27-A3 to give a final DMSO concentration of <1%. Dilution plates were stored at −70° C. until used and were used within one week of being produced. All results were read visually after 24 hours of incubation at the lowest drug concentration at which there was a 50% decrease in growth by visual inspection. Quality control isolates C. parapsilosis ATCC22019 and C. krusei ATCC6258 were included on each day of testing although there are no standard QC values for these isolates against this compound. The MIC values for ATCC22019 and ATCC6258 remained within a tight range of 1-2 dilutions over the course of the study.

[22] = C. auris isolates with elevated echinocandin MICs, 7 isolates

CCCCCCCCNCCC[C@@H](C)[C@H]1CC[C@H]2[C@@H]3[C@H](OCCCN)C[C@@H]4C[C@H](OCCCN)CC[C@]4(C)[C@H]3C[C@H](OCCCN)[C@]12C [CSA 13]
MIC [1]: 2 µg/mL
MIC [2]: 0.5 µg/mL
MIC [3]: 0.5 µg/mL
MIC [4]: 2 µg/mL
MIC [5]: 2 µg/mL
MIC [6]: 4 µg/mL
MIC [7]: 8 µg/mL
MIC [8]: 2 µg/mL
MIC ([9]; C. lusitaniae): 0.5 µg/mL
MIC [10]: 2 µg/mL
MIC [11]: 2 µg/mL
MIC [12]: 4 µg/mL
MIC [13]: 2 µg/mL
MIC [14]: 1 µg/mL
MIC ([15]; C. guilliermondii): 0.5 µg/mL
MIC ([16]; C. glabrata): 0.5 µg/mL
MIC ([17]; C. tropicalis): 0.5 µg/mL
MIC [18]: 2 µg/mL
MIC ([19]; Cryptococcus neofermans): 0.5 µg/mL
MIC [20]: 2 µg/mL

CC(C)[C@@H](CC[C@@H](C)[C@H]1CC[C@H]2[C@@H]3[C@H](O)C[C@H]4C[C@@H](NCCCNCCCCN)CC[C@]4(C)[C@H]3CC[C@]12C)OS(=O)(=O)O [Squalamine, squalamine, reference compound]
MIC ([9]; Clavispora lusitaniae): 4 µg/mL
MIC ([15]; Meyerozyma guilliermondii): 4 µg/mL
MIC ([16]; Nakaseomyces glabratus): 2 µg/mL
MIC ([17]; Candida tropicalis): 4 µg/mL
MIC ([19]; Cryptococcus): 4 µg/mL

CCCCCCCCCCCCNCCC[C@@H](C)[C@H]1CC[C@H]2[C@@H]3[C@H](OCCCN)C[C@@H]4C[C@H](OCCCN)CC[C@]4(C)[C@H]3C[C@H](OCCCN)[C@]12C [CSA-131]
MIC Range ([21]; 100 C. auris isolates, 24 hours, 50% decrease in growth): 0.5 to 1 µg/mL
MIC Range ([21]; C. auris Clade 1, 47 isolates): 0.5 to 1 µg/mL
MIC90 ([21]; C. auris Clade 2, 11 isolates): 1 µg/mL (≈ 1.36 µM)
MIC Range ([21]; C. auris Clade 2, 11 isolates): 0.5 to 1 µg/mL
MIC90 ([21]; C. auris Clade 3, 39 isolates): 1 µg/mL (≈ 1.36 µM)
MIC Range ([21]; C. auris Clade 3, 39 isolates): 0.5 to 1 µg/mL
MIC90 ([21]; C. auris Clade 4, 3 isolates): 1 µg/mL (≈ 1.36 µM)
MIC Range ([21]; C. auris Clade 4, 3 isolates): 0.5 to 1 µg/mL
MIC90 [21, 22]: 1 µg/mL (≈ 1.36 µM)
MIC Range [21, 22]: 0.5 to 1 µg/mL
MIC50 ([21]; Candidozyma auris, 24 h, 100 C. auris isolates, 24 hours, 50% decrease in growth, read-out: MIC50): 1 µg/mL (≈ 1.36 µM)
MIC ([21]; Candidozyma auris, 24 h, 100 C. auris isolates, 24 hours, 50% decrease in growth, read-out: MIC Mode): 1 µg/mL (≈ 1.36 µM)
MIC50 ([21]; Candidozyma auris, C. auris Clade 1, 47 isolates, read-out: MIC50): 1 µg/mL (≈ 1.36 µM)
MIC90 ([21]; Candidozyma auris, C. auris Clade 1, 47 isolates, read-out: MIC90): 1 µg/mL (≈ 1.36 µM)
MIC ([21]; Candidozyma auris, C. auris Clade 1, 47 isolates, read-out: MIC Mode): 1 µg/mL (≈ 1.36 µM)
MIC50 ([21]; Candidozyma auris, C. auris Clade 2, 11 isolates, read-out: MIC50): 1 µg/mL (≈ 1.36 µM)
MIC ([21]; Candidozyma auris, C. auris Clade 2, 11 isolates, read-out: MIC Mode): 1 µg/mL (≈ 1.36 µM)
MIC50 ([21]; Candidozyma auris, C. auris Clade 3, 39 isolates, read-out: MIC50): 1 µg/mL (≈ 1.36 µM)
MIC ([21]; Candidozyma auris, C. auris Clade 3, 39 isolates, read-out: MIC Mode): 1 µg/mL (≈ 1.36 µM)
MIC50 ([21]; Candidozyma auris, C. auris Clade 4, 3 isolates, read-out: MIC50): 0.5 µg/mL (≈ 0.682 µM)
MIC ([21]; Candidozyma auris, C. auris Clade 4, 3 isolates, read-out: MIC Mode): 0.5 µg/mL (≈ 0.682 µM)
MIC50 ([21]; Candidozyma auris, C. auris isolates with elevated echinocandin MICs, 7 isolates, read-out: MIC50): 1 µg/mL (≈ 1.36 µM)
MIC ([21]; Candidozyma auris, C. auris isolates with elevated echinocandin MICs, 7 isolates, read-out: MIC Mode): 1 µg/mL (≈ 1.36 µM)
MIC50 ([21]; Candidozyma auris, fluconazole Resistant C. auris isolates, 69 isolates): 1 µg/mL (≈ 1.36 µM)
MIC50 ([21]; Candidozyma auris, fluconazole Susceptible C. auris isolates, 30 isolates): 0.5 µg/mL (≈ 0.682 µM)
MIC ([21]; Candidozyma auris, read-out: MIC Mode, fluconazole Resistant C. auris isolates, 69 isolates): 1 µg/mL (≈ 1.36 µM)
MIC90 ([21]; Candidozyma auris, 100 C. auris isolates, 24 hours, 50% decrease in growth, read-out: MIC90): 1 µg/mL (≈ 1.36 µM)
activity against C. auris (in words) ([21]; collection of 100 C. auris isolates, 4 clades): showed activity against all C. auris among this collection
MIC90 ([21]; {}): 1 µg/mL (≈ 1.36 µM)
MIC Range ([21]; {}): 0.5 to 1 µg/mL
